Columns and labels:
Conditions in all cases: 72 h
HCC1937 = tested on: HCC1937
Procedure, shortened: (§1)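 Two sequential readouts followed a 72 h incubation of breast cancer cell lines with compound at 5 concentrations in 10-fold steps over a compound-specific 10,000-fold range: CellTox Green fluorescence (485/520 nm) for cell death, then CellTiter-Glo luminescence, after 10 min at room temperature, for viability. Each plate was normalised to 0.1 % DMSO and a positive kill control. Dose-response curves were fitted for EC50, censored at the top concentration.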

CAL-148 = tested on: CAL-148
Procedure, shortened: as §1

HCC1143 = tested on: HCC1143
Procedure, shortened: as §1

Hs578T = tested on: Hs578T
Procedure, shortened: as §1

MCF-10A = tested on: MCF-10A
Procedure, shortened: as §1

MDA-MB-231 = tested on: MDA-MB-231
Procedure, shortened: as §1

BT-474 = tested on: BT-474
Procedure, shortened: as §1

CAL-51 [1] = tested on: CAL-51
Procedure, shortened: as §1

BT-549 = tested on: BT-549
Procedure, shortened: as §1

CAL-120 = tested on: CAL-120
Procedure, shortened: as §1

CAL-85-1 = tested on: CAL-85-1
Procedure, shortened: as §1

HDQ-P1 = tested on: HDQ-P1
Procedure, shortened: as §1

DU-4475 = tested on: DU-4475
Procedure, shortened: as §1

MFM-223 = tested on: MFM-223
Procedure, shortened: as §1

SK-BR-3 = tested on: SK-BR-3
Procedure, shortened: as §1

MDA-MB-468 = tested on: MDA-MB-468
Procedure, shortened: as §1

MDA-MB-436 = tested on: MDA-MB-436
Procedure, shortened: as §1

CAL-51 [2] = tested on: CAL-51; remark: listed apart in the source
Description: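 Drug sensitivity and resistance testing (DSRT) of breast cancer cell lines in 384-well plates, 5 concentrations in 10-fold dilutions over a compound-specific 10,000-fold range. After 72 h, cytotoxicity was read by CellTox Green fluorescence and viability by CellTiter-Glo luminescence (multiplexed), normalised to DMSO and benzethonium chloride controls. EC50 is the inflection point of the fitted dose-response curve (bottom asymptote free, so it can be relative for partial curves) and is censored at the highest tested concentration. Rows with DSS 0 (no meaningful response) were excluded.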

MDA-MB-453 = tested on: MDA-MB-453
Procedure, shortened: as §1

| SMILES | EC50, CellTiter-Glo (HCC1937) [nM] | EC50, CellTiter-Glo (CAL-148) [nM] | EC50, CellTiter-Glo (HCC1143) [nM] | EC50, CellTiter-Glo (Hs578T) [nM] | EC50, CellTiter-Glo (MCF-10A) [nM] | EC50, CellTiter-Glo (MDA-MB-231) [nM] | EC50, CellTiter-Glo (BT-474) [nM] | EC50, CellTiter-Glo (CAL-51 [1]) [nM] | EC50, CellTiter-Glo (BT-549) [nM] | EC50, CellTiter-Glo (CAL-120) [nM] | EC50, CellTiter-Glo (CAL-85-1) [nM] | EC50, CellTiter-Glo (HDQ-P1) [nM] | EC50, CellTiter-Glo (DU-4475) [nM] | EC50, CellTiter-Glo (MFM-223) [nM] | EC50, CellTiter-Glo (SK-BR-3) [nM] | EC50, CellTiter-Glo (MDA-MB-468) [nM] | EC50, CellTiter-Glo (MDA-MB-436) [nM] | EC50, CellTox Green (CAL-51 [2]) [nM] | EC50, CellTiter-Glo (MDA-MB-453) [nM] |
| --- | --- | --- | --- | --- | --- | --- | --- | --- | --- | --- | --- | --- | --- | --- | --- | --- | --- | --- | --- |
| CC[C@H](CC#N)OC(=O)N[C@@H](C)c1cccc(NC(=O)Nc2ccc(-c3cnco3)c(OC)c2)c1 [AVN944] | 333 | 236 | 359 | 532 | 176 | 287 | 699 | 196 | 139 | 376 | 174 | 198 | 465 | 859 | 491 | 85 | 176 | 176 | – |
| Cc1c(N)nc([C@H](CC(N)=O)NC[C@H](N)C(N)=O)nc1C(=O)N[C@H](C(=O)N[C@H](C)[C@@H](O)[C@H](C)C(=O)N[C@H](C(=O)NCCc1nc(-c2nc(C(=O)NCCC[S+](C)C)cs2)cs1)[C@@H](C)O)[C@@H](OC1OC(CO)C(O)C(O)C1OC1OC(CO)C(O)C(OC(N)=O)C1O)c1cnc[nH]1 (stereo partly specified) [Bleomycin] | 8710 | 911 | 9670 | – | – | – | – | 49.9 | 2360 | – | – | – | – | – | 1830 | – | 5920 | 20.5 | – |
| CC(C)C[C@H](NC(=O)[C@H](CCc1ccccc1)NC(=O)CN1CCOCC1)C(=O)N[C@@H](Cc1ccccc1)C(=O)N[C@@H](CC(C)C)C(=O)[C@@]1(C)CO1 [Carfilzomib] | 17.2 | 33.1 | 8.56 | 12.4 | 90.6 | 16.9 | 13.8 | 13.1 | 3.63 | 25.3 | 8.12 | 19.1 | 42.8 | 3.9 | 5.41 | 3.42 | 6.13 | 5.31 | 7.36 |
| Nc1nc(Cl)nc2c1ncn2[C@@H]1O[C@H](CO)[C@@H](O)[C@@H]1F [Clofarabine] | – | 601 | 320 | 3150 | 675 | 524 | 196 | 261 | 211 | 305 | 398 | 482 | 872 | – | 201 | 627 | 219 | 108 | – |
| CCN(CC)CCOc1ccc(C(=C(Cl)c2ccccc2)c2ccccc2)cc1 [Clomifene] | 2900 | – | – | 2760 | 9400 | 3540 | 3940 | – | 1980 | – | 2390 | – | 3460 | 6660 | 6000 | – | – | – | 2910 |
| CCc1cnn2c(NCc3ccc[n+]([O-])c3)cc(N3CCCC[C@H]3CCO)nc12 [Dinaciclib] | 21.9 | 26.9 | 12 | 16 | 45.8 | 5.9 | 12.9 | 12.8 | 13.9 | 17.9 | 5.42 | 12.3 | 20.6 | 21.2 | 6.99 | 23.7 | 9 | 13 | 26.1 |
| COc1cc2c(Oc3ccc(NC(=O)C4(C(=O)Nc5ccc(F)cc5)CC4)cc3F)ccnc2cc1OCCCN1CCOCC1 [Foretinib] | – | 610 | 317 | – | 854 | 600 | 145 | 490 | – | 179 | – | – | – | 111 | – | 772 | > 1000 | 251 | – |
| COc1cc(Nc2ncc(F)c(Nc3ccc4c(n3)N(COP(=O)(O)O)C(=O)C(C)(C)O4)n2)cc(OC)c1OC [Fostamatinib] | > 2500 | – | 530 | 938 | 451 | 452 | 1160 | – | 599 | 405 | 1560 | 1660 | – | 222 | > 2500 | – | – | – | – |
| CC(C)NC[C@@H](C(=O)N1CCN(c2ncnc3c2[C@H](C)C[C@H]3O)CC1)c1ccc(Cl)cc1 [GDC-0068] | 2350 | 177 | 1590 | 1150 | 1150 | – | > 10000 | 2780 | 600 | 819 | 6480 | 271 | 2070 | 139 | 814 | 656 | > 10000 | 1150 | 783 |
| CCCc1cc(C)[nH]c(=O)c1CNC(=O)c1cc(-c2ccnc(N3CCN(C)CC3)c2)cc2c1cnn2C(C)C [GSK343] | – | 1860 | – | – | – | 3820 | 4570 | – | 3210 | – | 7160 | – | 2380 | 7400 | 2750 | 2980 | 5170 | – | 2690 |
| COc1cc2c(cc1-c1c(C)noc1C)ncc1[nH]c(=O)n([C@H](C)c3ccccn3)c12 [I-BET151] | 537 | – | 1380 | 678 | 855 | 1310 | 6720 | 1380 | 673 | 574 | 834 | 1340 | 4080 | 913 | 1220 | 3110 | – | 1740 | 2190 |
| CC(C)n1nc(-c2ccc3oc(N)nc3c2)c2c(N)ncnc21 [INK128] | 173 | 32.2 | 38.2 | 27.8 | 43 | 37.4 | 31.9 | 15.9 | 22.7 | 27.8 | 25.5 | 24 | 188 | 15.4 | 8.43 | 40.6 | 23.6 | – | 16.8 |
| N[C@@H](Cc1ccc(N(CCCl)CCCl)cc1)C(=O)O [Melphalan] | 235 | 268 | 739 | 518 | 424 | 237 | 313 | 182 | 758 | 1220 | 444 | 297 | 322 | 310 | 247 | 203 | 501 | 194 | 213 |
| CO[C@H](C(=O)[C@@H](O)[C@@H](C)O)[C@@H]1Cc2cc3cc(O[C@H]4C[C@@H](O[C@@H]5C[C@@H](O)[C@H](O)[C@@H](C)O5)[C@H](O)[C@@H](C)O4)c(C)c(O)c3c(O)c2C(=O)[C@H]1O[C@H]1C[C@@H](O[C@@H]2C[C@@H](O)[C@@H](O[C@@H]3C[C@](C)(O)[C@H](O)[C@@H](C)O3)[C@@H](C)O2)[C@H](O)[C@@H](C)O1 [Plicamycin] | 4190 | 4000 | 3910 | 4220 | 4120 | 3020 | 2440 | 240 | 2340 | 6760 | 4270 | 5650 | 3220 | 7030 | 4530 | 2510 | 6150 | 2120 | 5310 |
| CO[C@H]1C[C@@H]2CC[C@@H](C)[C@@](O)(O2)C(=O)C(=O)N2CCCC[C@H]2C(=O)O[C@H]([C@H](C)C[C@@H]2CC[C@@H](O)[C@H](OC)C2)CC(=O)[C@H](C)/C=C(\C)[C@@H](O)[C@@H](OC)C(=O)[C@H](C)C[C@H](C)/C=C/C=C/C=C/1C [Sirolimus] | 6.4 | 3.6 | 3.09 | 1.24 | – | – | 3.4 | 2.33 | 1.85 | 3.4 | 0.95 | 7.92 | 16.1 | 3.87 | 4.12 | 0.65 | 2.96 | – | 4.84 |
| CN1CCN(c2nc(C3=C(c4c[nH]c5ccccc45)C(=O)NC3=O)c3ccccc3n2)CC1 [Sotrastaurin] | – | – | – | – | – | – | – | – | – | – | – | > 10000 | 6790 | – | 1460 | – | – | – | – |
| CN1CCc2c(c3ccccc3n2Cc2ccc(C(=O)NO)cc2)C1 [Tubastatin A] | 1600 | – | 2350 | – | – | – | – | 297 | 7980 | – | 6160 | – | – | – | 8820 | – | – | 2220 | – |
| CC[C@@H]1C(=O)N(C)c2cnc(Nc3ccc(C(=O)N[C@H]4CC[C@H](N5CCN(CC6CC6)CC5)CC4)cc3OC)nc2N1C(C)C [Volasertib] | 82.3 | 8.07 | 22.5 | 76.9 | 33.2 | 9.75 | 7.02 | 16.9 | 20.4 | 46.6 | 8.51 | 53.1 | 25.4 | 4.62 | 8.82 | 6.98 | 3.59 | 20.7 | 0.7 |

— the supplement of paper PMC4862054
